Experimental data from patent US20250161321A1, “AMINO ACID BASED CARBAMATES AND/OR UREAS FOR THE TREATMENT OF SORTILIN DEPENDENT DISEASES” (Vesper Bio ApS, priority 2022, published 2025).

Molecular target: h-Sortilin (Homo sapiens (Human), UniProt Q99523)
Assay: Neurotensin scintillation proximity assay (SORTILIN Binding Assay [3H]NT SPA)
Conditions: displacement of 5 nM [3H]-neurotensin from 150 nM 6his-Sortilin; average of at least 2 determinations
Method: The exemplified compounds of the invention were tested in a Neurotensin (NTS) scintillation proximity assay (SPA). NTS, which is a 13 amino acid neuropeptide, is a sortilin ligand. The IC50 is a measure of the amount of the compound required to inhibit the binding of NTS to sortilin by 50%. The skilled person will recognise that the lower the IC50 value, the less of the compound needed to achieve the desired effect, and as a result, the chances of undesirable off-target effects are reduced.
Compound affinity was determined by measuring the displacement of [^3H]-neurotensin binding to h-Sortilin in SPA format. Total volume of 40 μl in 50 mM HEPES pH 7.4 assay buffer containing 100 mM NaCl, 2.0 mM CaCl2, 0.1% BSA and 0.1% Tween-20. Compound pre-incubation for 30 minutes at room temperature with 150 nM of 6his-Sortilin before 5 nM [3H]-Neurotensin and Ni chelate imaging beads (Perkin Elmer) were added, after 6 hours the plate was read on a ViewLux with 360 s exposure time. Dose-response evaluation of compounds was performed with 8 concentrations of drugs (covering 3 decades). IC50 values were calculated by nonlinear regression using the sigmoid concentration-response (variable slope) using CDD Vault software. All values reported are average of at least 2 determinations.

Sequence of h-Sortilin (Q99523 78-831): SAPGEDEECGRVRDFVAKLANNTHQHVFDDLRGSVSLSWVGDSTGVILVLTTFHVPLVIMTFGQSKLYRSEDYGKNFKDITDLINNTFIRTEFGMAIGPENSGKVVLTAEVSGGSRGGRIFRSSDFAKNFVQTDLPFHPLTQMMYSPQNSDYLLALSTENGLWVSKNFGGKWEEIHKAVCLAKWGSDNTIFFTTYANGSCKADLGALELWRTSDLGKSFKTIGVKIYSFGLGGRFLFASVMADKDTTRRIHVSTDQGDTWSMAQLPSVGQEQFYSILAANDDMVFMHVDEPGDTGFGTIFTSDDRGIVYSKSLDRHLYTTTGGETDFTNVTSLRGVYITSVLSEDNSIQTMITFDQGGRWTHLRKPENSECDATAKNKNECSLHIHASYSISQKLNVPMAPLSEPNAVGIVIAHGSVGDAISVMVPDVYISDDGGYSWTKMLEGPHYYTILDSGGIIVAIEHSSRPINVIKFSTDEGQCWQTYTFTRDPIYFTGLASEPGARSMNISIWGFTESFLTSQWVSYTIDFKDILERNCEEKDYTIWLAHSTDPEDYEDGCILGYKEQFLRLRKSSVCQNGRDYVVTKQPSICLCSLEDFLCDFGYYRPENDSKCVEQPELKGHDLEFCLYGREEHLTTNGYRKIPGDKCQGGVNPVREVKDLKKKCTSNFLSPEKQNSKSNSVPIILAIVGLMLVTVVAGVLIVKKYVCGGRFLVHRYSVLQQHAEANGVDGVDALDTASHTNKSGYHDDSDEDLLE

| SMILES | IC50 |
| --- | --- |
| CC(C)(C)CC[C@H](NC(=O)NCc1ccccc1)C(=O)O [Example 1, (2S)-2-[(benzylcarbamoyl)amino]-5,5-dimethylhexanoic acid] | 380 nM |
| CN(Cc1ccccc1)C(=O)N[C@@H](CCC(C)(C)C)C(=O)O [Example 2, (2S)-2-{[benzyl(methyl)carbamoyl]amino}-5,5-dimethylhexanoic acid] | 430 nM |
| CC(C)(C)CC[C@H](NC(=O)OCc1ccccc1)C(=O)O [Example 3, (2S)-2-{[(benzyloxy)carbonyl]amino}-5,5-dimethylhexanoic acid] | 560 nM |
| CC(C)(C)CC[C@H](NC(=O)N1CCOCC1)C(=O)O [Example 4, (2S)-5,5-dimethyl-2-[(morpholine-4-carbonyl)amino]hexanoic acid] | 260 nM |
| CC(C)(C)CC[C@H](NC(=O)N1CCCOCC1)C(=O)O [Example 5, (2S)-5,5-dimethyl-2-[(1,4-oxazepane-4-carbonyl)amino]hexanoic acid] | 370 nM |
